Source: ChEMBL document CHEMBL1148293 (J Med Chem, 2004)

Key:
Mu-type opioid receptor = Mu-type opioid receptor (Cavia porcellus, UniProt P97266); assay: Binding affinity against opioid receptor mu 1 using [3H]DAMGO as radioligand in guinea pig brain membranes.; assay type: cell membranes
[1] = target: Kappa-type opioid receptor (Cavia porcellus, UniProt P41144); assay: Binding affinity against opioid receptor kappa 1 using [3H]-U-69,593 as radioligand in guinea pig brain membranes.; assay type: cell membranes
[2] = target: Opioid receptors; delta & kappa (UniProt P41145+P41143); assay: Selectivity ratio expressed as Ki of delta opioid receptor to that of kappa opioid receptor.; assay type: protein assay; details: Cavia porcellus
[3] = tested on: Opioid receptors; mu & delta; assay: Selectivity ratio expressed as Ki of delta opioid receptor to that of mu opioid receptor.; assay type: protein assay; details: Cavia porcellus

Chain of Opioid receptors; delta & kappa (P41143 whole entry, looked up): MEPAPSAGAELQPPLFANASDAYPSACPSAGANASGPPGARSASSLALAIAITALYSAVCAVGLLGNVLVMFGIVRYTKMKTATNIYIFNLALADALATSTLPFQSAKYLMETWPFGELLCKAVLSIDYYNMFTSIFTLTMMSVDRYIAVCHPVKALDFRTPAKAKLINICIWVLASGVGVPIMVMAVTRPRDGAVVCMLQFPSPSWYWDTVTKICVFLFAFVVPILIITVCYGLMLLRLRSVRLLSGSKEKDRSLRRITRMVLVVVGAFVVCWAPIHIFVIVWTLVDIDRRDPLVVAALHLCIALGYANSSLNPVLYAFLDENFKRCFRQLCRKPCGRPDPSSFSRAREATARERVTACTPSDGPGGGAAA
Chain of Opioid receptors; delta & kappa (P41145 whole entry, looked up): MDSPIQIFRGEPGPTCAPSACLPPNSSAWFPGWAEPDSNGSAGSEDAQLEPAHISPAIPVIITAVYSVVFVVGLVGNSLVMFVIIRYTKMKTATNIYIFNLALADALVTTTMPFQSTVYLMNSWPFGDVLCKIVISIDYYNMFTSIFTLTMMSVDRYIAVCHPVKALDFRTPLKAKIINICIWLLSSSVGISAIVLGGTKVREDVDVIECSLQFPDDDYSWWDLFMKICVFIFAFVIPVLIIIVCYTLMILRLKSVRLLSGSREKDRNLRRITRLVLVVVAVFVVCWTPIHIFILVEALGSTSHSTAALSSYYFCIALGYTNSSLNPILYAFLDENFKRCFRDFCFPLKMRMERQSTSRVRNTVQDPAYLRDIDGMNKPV
Chain of Kappa-type opioid receptor (P41144 whole entry): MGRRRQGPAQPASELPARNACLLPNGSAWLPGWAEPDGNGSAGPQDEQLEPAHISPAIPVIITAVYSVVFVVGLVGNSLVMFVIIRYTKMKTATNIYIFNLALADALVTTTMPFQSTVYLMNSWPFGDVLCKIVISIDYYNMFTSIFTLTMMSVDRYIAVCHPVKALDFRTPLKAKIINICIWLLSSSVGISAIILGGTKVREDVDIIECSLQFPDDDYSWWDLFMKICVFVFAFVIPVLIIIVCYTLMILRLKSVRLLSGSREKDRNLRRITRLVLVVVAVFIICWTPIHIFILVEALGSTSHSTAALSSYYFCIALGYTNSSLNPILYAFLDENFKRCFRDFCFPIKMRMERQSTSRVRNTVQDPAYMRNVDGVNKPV
Chain of Mu-type opioid receptor (P97266 whole entry): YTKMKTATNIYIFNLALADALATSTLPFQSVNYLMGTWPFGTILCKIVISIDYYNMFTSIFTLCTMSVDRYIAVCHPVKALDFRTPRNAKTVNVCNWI

SMILES: O=C1c2ccc(OCC3CCC3)cc2[C@@]23CCCC[C@H]2[C@@H]1N(CC1CCC1)CC3
- Ki (Mu-type opioid receptor): 800 nM
- Ki [1]: 290 nM
- Selectivity [2]: 35
- Selectivity [3]: > 12

SMILES: c1cc2c(cc1-c1nnn[nH]1)[C@@]13CCCC[C@H]1[C@@H](C2)N(CC1CCC1)CC3
- Ki (Mu-type opioid receptor): 1100 nM
- Ki [1]: 850 nM

SMILES: NC(=O)c1ccc2c(c1)[C@@]13CCCC[C@H]1[C@@H](C2)N(CC1CCC1)CC3
- Ki [1]: 0.087 nM

SMILES: O=C1c2ccc(O)cc2[C@@]23CCCC[C@H]2[C@@H]1N(CCF)CC3
- Ki (Mu-type opioid receptor): 560 nM
- Ki [1]: 250 nM
- Selectivity [2]: > 40
- Selectivity [3]: > 18

SMILES: NC(=O)c1ccc2c(c1)[C@@]13CCCC[C@H]1[C@@H](C2)N(CC1CC1)CC3
- Ki (Mu-type opioid receptor): 0.059 nM
- Ki [1]: 0.18 nM
- Selectivity [2]: 5.6
- Selectivity [3]: 17

SMILES: NC(=O)c1ccc2c(c1)[C@@]13CCCC[C@H]1[C@@H](C2=O)N(CC1CCC1)CC3
- Ki (Mu-type opioid receptor): 2.5 nM
- Ki [1]: 2.7 nM
- Selectivity [2]: 19
- Selectivity [3]: 20

SMILES: CN1CC[C@]23CCCC[C@H]2[C@H]1Cc1ccc(-c2nnn[nH]2)cc13
- Ki (Mu-type opioid receptor): 380 nM
- Ki [1]: 380 nM

SMILES: O=C1c2ccc(O)cc2[C@@]23CCCC[C@H]2[C@@H]1N(CCCF)CC3
- Ki (Mu-type opioid receptor): 20 nM
- Ki [1]: 2.5 nM

SMILES: CN1CC[C@]23CCCC[C@H]2[C@H]1Cc1ccc(-c2nn[nH]n2)cc13
- Selectivity [2]: > 26
- Selectivity [3]: > 26

SMILES: NCc1ccc2c(c1)[C@@]13CCCC[C@H]1[C@@H](C2)N(CC1CCC1)CC3
- Ki (Mu-type opioid receptor): 8.5 nM
- Ki [1]: 8.6 nM
- Selectivity [2]: 48
- Selectivity [3]: 48

SMILES: CN1CC[C@]23CCCC[C@H]2[C@H]1Cc1ccc(C#N)cc13
- Ki (Mu-type opioid receptor): 20 nM
- Ki [1]: 200 nM
- Selectivity [2]: > 5
- Selectivity [3]: > 500

SMILES: O=C1c2ccc(O)cc2[C@@]23CCCC[C@H]2[C@@H]1NCC3
- Ki (Mu-type opioid receptor): 20 nM
- Ki [1]: 25 nM
- Selectivity [2]: > 400
- Selectivity [3]: > 500

SMILES: CC(C)=CCN1CC[C@]23CCCC[C@H]2[C@H]1C(=O)c1ccc(O)cc13
- Ki (Mu-type opioid receptor): 19 nM
- Ki [1]: 7.4 nM
- Selectivity [2]: 150
- Selectivity [3]: 58

SMILES: CN1CC[C@]23CCCC[C@H]2[C@H]1Cc1ccc(C(N)=O)cc13
- Ki (Mu-type opioid receptor): 0.073 nM
- Ki [1]: 3.9 nM
- Selectivity [2]: 3.3
- Selectivity [3]: 180

SMILES: O=C1c2ccc(-c3nnn[nH]3)cc2[C@@]23CCCC[C@H]2[C@@H]1N(CC1CCC1)CC3
- Ki (Mu-type opioid receptor): 230 nM
- Ki [1]: 360 nM

SMILES: COc1ccc2c(c1)[C@@]13CCCC[C@H]1[C@H](NCC3)C2=O
- Ki (Mu-type opioid receptor): 110 nM
- Ki [1]: 390 nM
- Selectivity [2]: 0.04
- Selectivity [3]: 0.14

SMILES: CN1CC[C@]23CCCC[C@H]2[C@H]1Cc1ccc(N)cc13
- Ki (Mu-type opioid receptor): 7.9 nM
- Ki [1]: 110 nM
- Selectivity [2]: 14
- Selectivity [3]: 190

SMILES: c1cc2c(cc1-c1nn[nH]n1)[C@@]13CCCC[C@H]1[C@@H](C2)N(CC1CCC1)CC3
- Selectivity [2]: > 12
- Selectivity [3]: > 9

SMILES: O=C1c2ccc(O)cc2[C@@]23CCCC[C@H]2[C@@H]1N(C[C@@H]1CCCO1)CC3
- Ki (Mu-type opioid receptor): 0.38 nM
- Ki [1]: 0.18 nM
- Selectivity [2]: 5.6
- Selectivity [3]: 2.6

SMILES: Nc1ccc2c(c1)[C@@]13CCCC[C@H]1[C@@H](C2=O)N(CC1CCC1)CC3
- Ki (Mu-type opioid receptor): 23 nM
- Ki [1]: 4.7 nM
- Selectivity [2]: 130
- Selectivity [3]: 26

SMILES: C#CCOc1ccc2c(c1)[C@@]13CCCC[C@H]1[C@@H](C2=O)N(CC#C)CC3
- Ki (Mu-type opioid receptor): 710 nM
- Ki [1]: 500 nM
- Selectivity [2]: > 20
- Selectivity [3]: > 14

SMILES: CN1CC[C@]23CCCC[C@H]2[C@H]1Cc1ccc(O)cc13
- Selectivity [2]: 1.8
- Selectivity [3]: 20

SMILES: O=C1c2ccc(O)cc2[C@@]23CCCC[C@H]2[C@@H]1N(CC1CCC1)CC3
- Ki (Mu-type opioid receptor): 3.3 nM
- Ki [1]: 0.48 nM
- Selectivity [2]: 540
- Selectivity [3]: 79

SMILES: CN1CC[C@]23CCCC[C@H]2[C@H]1C(=O)c1ccc(O)cc13
- Ki (Mu-type opioid receptor): 21 nM
- Ki [1]: 47 nM
- Selectivity [2]: 26
- Selectivity [3]: 57

SMILES: O=C(O)c1ccc2c(c1)[C@@]13CCCC[C@H]1[C@@H](C2=O)N(CC1CCC1)CC3
- Ki (Mu-type opioid receptor): 28 nM
- Ki [1]: 59 nM
- Selectivity [2]: 14
- Selectivity [3]: 29

SMILES: Oc1ccc2c(c1)[C@@]13CCCC[C@H]1[C@@H](C2)N(CC1CCC1)CC3 [BUTORPHAN]
- Ki [1]: 0.079 nM
- Selectivity [2]: 75
- Selectivity [3]: 26

SMILES: Nc1ccc2c(c1)[C@@]13CCCC[C@H]1[C@@H](C2)N(CC1CC1)CC3
- Ki (Mu-type opioid receptor): 1.3 nM
- Ki [1]: 0.18 nM
- Selectivity [2]: 830
- Selectivity [3]: 120

SMILES: O=C1c2ccc(O)cc2[C@@]23CCCC[C@H]2[C@@H]1N(Cc1ccc2ccccc2c1)CC3
- Ki (Mu-type opioid receptor): 2200 nM
- Ki [1]: 780 nM
- Selectivity [2]: > 13
- Selectivity [3]: > 4.5

SMILES: CN1CC[C@]23CCCC[C@H]2[C@H]1Cc1ccc(CN)cc13
- Ki (Mu-type opioid receptor): 66 nM
- Ki [1]: 120 nM
- Selectivity [2]: > 21
- Selectivity [3]: > 38

SMILES: O=C1c2ccc(-c3nn[nH]n3)cc2[C@@]23CCCC[C@H]2[C@@H]1N(CC1CCC1)CC3
- Selectivity [2]: 5
- Selectivity [3]: 7.8

SMILES: C#CCN1CC[C@]23CCCC[C@H]2[C@H]1C(=O)c1ccc(O)cc13
- Ki (Mu-type opioid receptor): 190 nM
- Ki [1]: 60 nM
- Selectivity [2]: 38
- Selectivity [3]: 12

SMILES: N#Cc1ccc2c(c1)[C@@]13CCCC[C@H]1[C@@H](C2)N(CC1CCC1)CC3
- Ki (Mu-type opioid receptor): 37 nM
- Ki [1]: 6 nM
- Selectivity [2]: 320
- Selectivity [3]: 51

SMILES: O=C(Nc1ccc2c(c1)[C@@]13CCCC[C@H]1[C@@H](C2=O)N(CC1CCC1)CC3)c1ccccc1
- Ki (Mu-type opioid receptor): 4.4 nM
- Ki [1]: 7.7 nM
- Selectivity [2]: 49
- Selectivity [3]: 86

SMILES: O=C1c2ccc(O)cc2[C@@]23CCCC[C@H]2[C@@H]1N(CC1CC1)CC3
- Ki (Mu-type opioid receptor): 240 nM
- Ki [1]: 24 nM
- Selectivity [2]: 6
- Selectivity [3]: 0.6

SMILES: Nc1ccc2c(c1)[C@@]13CCCC[C@H]1[C@@H](C2)N(CC1CCC1)CC3
- Ki (Mu-type opioid receptor): 3.7 nM
- Ki [1]: 1.8 nM
- Selectivity [2]: 100
- Selectivity [3]: 49

SMILES: N#Cc1ccc2c(c1)[C@@]13CCCC[C@H]1[C@@H](C2=O)N(CC1CCC1)CC3
- Ki [1]: 400 nM

SMILES: O=C1c2ccc(O)cc2[C@@]23CCCC[C@H]2[C@@H]1N(CCc1ccccc1)CC3
- Ki (Mu-type opioid receptor): 0.63 nM
- Ki [1]: 7.7 nM
- Selectivity [2]: 1.3
- Selectivity [3]: 15
